pIC50, pKi: −log10 of the molar value.
Key:
[1] = target: T1, Acetylcholinesterase (Electrophorus electricus, UniProt O42275)
Description: Inhibition of electric eel AChE pre-incubated for 3 mins before acetylthiocholine substrate addition by Ellman's reagent based spectrophotometry

[2] = target: Cholinesterase (Equus caballus, UniProt P81908)
Description: Inhibition of equine serum BuChE pre-incubated for 3 mins before butyrylthiocholine substrate addition by Ellman's reagent based spectrophotometry

[3] = target: T1, Acetylcholinesterase; remark: listed apart in the source
Description: Inhibition of electric eel AChE pre-incubated for 3 mins before acetylthiocholine substrate addition by Lineweaver-Burk plot

T1 sequence (O42275 whole entry): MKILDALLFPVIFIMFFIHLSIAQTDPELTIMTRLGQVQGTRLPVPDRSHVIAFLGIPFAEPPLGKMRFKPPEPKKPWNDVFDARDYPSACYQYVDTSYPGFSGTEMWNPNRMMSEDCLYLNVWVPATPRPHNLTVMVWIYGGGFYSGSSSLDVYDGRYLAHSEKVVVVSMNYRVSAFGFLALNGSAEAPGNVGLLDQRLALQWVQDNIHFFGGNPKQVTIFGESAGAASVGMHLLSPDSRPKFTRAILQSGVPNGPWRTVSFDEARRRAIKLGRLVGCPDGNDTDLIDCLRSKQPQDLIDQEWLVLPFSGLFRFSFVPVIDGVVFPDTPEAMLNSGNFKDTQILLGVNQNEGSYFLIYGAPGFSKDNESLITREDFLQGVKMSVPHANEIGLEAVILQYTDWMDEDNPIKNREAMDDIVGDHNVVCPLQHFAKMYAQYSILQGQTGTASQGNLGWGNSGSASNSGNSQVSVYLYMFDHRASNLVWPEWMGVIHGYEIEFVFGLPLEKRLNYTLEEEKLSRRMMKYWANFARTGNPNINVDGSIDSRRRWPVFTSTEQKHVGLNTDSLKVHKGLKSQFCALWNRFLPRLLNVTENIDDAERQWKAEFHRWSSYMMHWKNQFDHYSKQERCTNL
Cholinesterase, sequence (P81908 whole entry): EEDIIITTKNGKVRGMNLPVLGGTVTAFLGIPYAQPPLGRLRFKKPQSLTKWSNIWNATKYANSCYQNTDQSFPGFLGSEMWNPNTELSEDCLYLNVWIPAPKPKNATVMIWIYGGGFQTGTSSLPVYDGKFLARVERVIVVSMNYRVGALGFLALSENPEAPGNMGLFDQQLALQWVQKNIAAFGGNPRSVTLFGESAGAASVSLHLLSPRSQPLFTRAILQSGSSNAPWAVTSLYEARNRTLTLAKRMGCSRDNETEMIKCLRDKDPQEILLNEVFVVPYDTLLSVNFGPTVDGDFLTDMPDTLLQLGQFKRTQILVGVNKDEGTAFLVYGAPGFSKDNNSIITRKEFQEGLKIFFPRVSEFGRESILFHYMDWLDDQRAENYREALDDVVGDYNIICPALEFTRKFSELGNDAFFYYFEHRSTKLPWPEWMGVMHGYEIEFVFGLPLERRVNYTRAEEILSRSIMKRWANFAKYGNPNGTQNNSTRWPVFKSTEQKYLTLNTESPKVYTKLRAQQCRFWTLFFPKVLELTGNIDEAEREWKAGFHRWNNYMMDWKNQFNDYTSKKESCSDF

Row | Structure (SMILES) | pIC50 [1] | pIC50 [2] | pKi [3]
1 | O=C1/C(=C/c2ccc(OCCCN3CCOCC3)cc2)COc2cc(O)ccc21 | 3.80 |  | 
2 | O=C1/C(=C/c2ccc(OCCCN3CCCCC3)cc2)COc2cc(O)ccc21 | 5.62 | 4.56 | 
3 | O=C1/C(=C/c2ccc(OCCN3CCOCC3)cc2)COc2cc(O)ccc21 | 5.09 | 4.02 | 
4 | O=C1/C(=C/c2ccc(OCCN3CCCCC3)cc2)COc2cc(O)ccc21 | 6.72 | 5.67 | 
5 | COc1ccc2c(c1)OC/C(=C\c1ccc(OCCCN3CCCCC3)cc1)C2=O | 5.48 | 4.58 | 
6 | COc1ccc2c(c1)OC/C(=C\c1ccc(OCCN3CCCCC3)cc1)C2=O | 6.76 | 5.09 | 
7 | COc1ccc2c(c1)OC/C(=C\c1ccc(OCCN3CCOCC3)cc1)C2=O | 5.72 | 4.94 | 
8 | COc1ccc2c(c1)OC/C(=C\c1ccc(OCCCN3CCOCC3)cc1)C2=O | 4.86 | 4.00 | 
9 | COc1ccc2c(c1)OC/C(=C\c1ccc(OCCCN3CCCC3)cc1)C2=O | 5.96 | 5.16 | 
10 | CCOc1ccc2c(c1)OC/C(=C\c1ccc(OCCN3CCCCC3)cc1)C2=O | 6.91 | 6.07 | 6.57
11 | CCOc1ccc2c(c1)OC/C(=C\c1ccc(OCCCN3CCOCC3)cc1)C2=O | 5.16 | 4.54 | 
12 | CCOc1ccc2c(c1)OC/C(=C\c1ccc(OCCN3CCOCC3)cc1)C2=O | 6.00 | 4.99 | 
13 | CCOc1ccc2c(c1)OC/C(=C\c1ccc(OCCCN3CCCCC3)cc1)C2=O | 6.25 | 5.51 | 
14 | O=C1/C(=C/c2ccc(OCCN3CCOCC3)cc2)COc2cc(OCc3ccccc3)ccc21 | 5.19 | 4.08 | 
15 | O=C1/C(=C/c2ccc(OCCCN3CCOCC3)cc2)COc2cc(OCc3ccccc3)ccc21 | 4.30 |  | 
16 | O=C1/C(=C/c2ccc(OCCN3CCCCC3)cc2)COc2cc(OCc3ccccc3)ccc21 | 6.68 | 5.59 | 
17 | O=C1/C(=C/c2ccc(OCCCN3CCCC3)cc2)COc2cc(OCc3ccccc3)ccc21 | 5.46 | 4.31 | 
18 | O=C1/C(=C/c2ccc(OCCCN3CCCCC3)cc2)COc2cc(OCc3ccccc3)ccc21 | 5.57 | 4.49 | 

From ChEMBL document CHEMBL3414493, “Design, synthesis and anticholinesterase activity of novel benzylidenechroman-4-ones bearing cyclic amine side chain” (Eur J Med Chem, 2015)
